Measured values as given in patent publication US9052321B2, “Flavivirus-based system for production of hepatitis C virus (HCV)” (priority 2008, dated 2015).

Tested on: HCV particles released by BHK-21 parental or BHK-WNV1 cells
Assay: Release of HCV envelope proteins/particles by BHK cells transfected with pHCVp7 after glycosylation or trafficking inhibitors (Western blot)
Format: cell-based, HCV 1a
Details: for HCV production and/or secretion: summary in the model of FIG. 13; for secretion of HCV envelope as well as core proteins: BHK parental and -WNV SG-replicon cells transfected with pHCVp7, 3 mM dnj, 3 mM pag or 0.3 mM alloxan, Western blot
Description: FIG. 2 illustrates factors affecting the release of HCV structural proteins: A) Enhancement by flavivirus, but not alphavirus subgenomic, replicons in BHK-21 cells: BHK-21 parental cells (lane 1) or bearing WNV1 (lane 2), Den2 (lane 3) or Semliki Forest virus SG-replicon (lane 4) were transfected with pHCVp7 (plasmid encoding HCV core to p7). Three days later, clarified culture media were pelleted over 15% sucrose cushion, then pellets were analyzed by Western blot with the following monoclonal antibodies: i) anti-HCV E2: AP33; ii) anti-HCV E1: A4, and iii) anti-HCV core: C1. B) WNV- and HCV-SG rep differentially affect the release of HCV-like particles. (left) BHK-21 cells, parental or bearing WNV1 SG-rep, were transfected with HCVp7, a plasmid encoding HCV core to p7. Three days later, HCV proteins in the lysate and supernatants (SN) were analyzed by Western Blot (WB). (right) HuH-7.5 cells (parental or harboring HCV 1a SG-rep) transfected with the same plasmid, were analyzed by WB. *, the E1/E2 signals were obtained with 60 ml of culture media instead of 15 ml for BHK parental and -WNV1 cells. C) N-glycosylation but not O-glycosylation is required for the release of HCV particles: BHK cells were transfected with pHCVp7, then treated or not with 3 mM deoxynojirimycin (dnj), 3 mM phenyl acetyl galactosaminide (pag) or 0.3 mM alloxan (all) for 2 days; HCV E1 Envelope released by BHK-21 parental or BHK-WNV1 cells was analyzed by Western blot after incubation with or without endoglycosidase H (endo-H).
FIG. 11 illustrates that secretion of HCV particles involves maturation of HCV glycoproteins in Golgi apparatus: A) Twelve hours after transfection of BHK-WNV1 cells with pHCVp7, cells were treated with 20 μM brefeldin-A (BFA) for 24 hours and the amounts of HCV E1 and E2 proteins in cell lysates and released particles were analyzed by WB; Hsp70=control. B) BHK and BHK-WNV1 cells were transfected with pHCVp7. Three days later, cells and particles in SN were harvested and treated with endo-H, followed by WB analysis. *, 30 ml culture media was used for parental BHK cells (15 ml for BHK-WNV1 cells).
To test the sensitivity of HCV glycoproteins produced in BHK-21 cells to endo-beta-N-acetyl-glucosaminidase H (endoglycosidase H/endo-H; New England Biolabs), cells were transfected with pHCVp7 plasmid. Three days later, supernatant was harvested as above; cell lysate and supernatant were then incubated in the presence of endo-H according to the manufacturer's protocols. For deoxyrijinomycin (DNJ) and brefeldin A (BFA) treatment, cells were transfected with pHCVp7 and, 12 hr later, the medium was replaced with DMEM containing 5 μg/ml BFA (Sigma), or 3 mM DNJ. Cells were grown for another 24 hr and supernatant was harvested.

C[C@H]1CCC/C=C/[C@@H]2C[C@H](O)C[C@H]2[C@H](O)/C=C/C(=O)O1 [BFA, brefeldin A]
HCV secretion (BHK-WNV1 cells, 20 μM BFA for 24 hours): abrogated | electrophoretic mobility of intracellular HCV envelope proteins (BHK-WNV1 cells, BFA): enhanced | HCV production and/or secretion (BHK-WNV1 cells): blocked

OC[C@H]1NC[C@H](O)[C@@H](O)[C@@H]1O [DNJ, deoxynojirimycin]
secretion of HCV envelope as well as core proteins: strongly inhibited | HCV production and/or secretion (BHK-WNV1 cells): blocked | release of HCV particles (parental BHK-21 and BHK-WNV1 cells, 3 mM DNJ): decreased

O=C1NC(=O)C(=O)C(=O)N1 [alloxan]
secretion of HCV envelope as well as core proteins: marginal effects

CC(=O)N[C@H]1[C@@H](Oc2ccccc2)O[C@H](CO)[C@H](O)[C@@H]1O [phenyl acetyl galactosaminide]
secretion of HCV envelope as well as core proteins: marginal effects
